Results from publication PMC9739180, “Discovery of a Flavonoid FM04 as a Potent Inhibitor to Reverse P-Glycoprotein-Mediated Drug Resistance in Xenografts and Improve Oral Bioavailability of Paclitaxel” (International Journal of Molecular Sciences, 2022).

Columns and labels:
[1] = molecular target: T1, BCRP (Homo sapiens, UniProt Q9UNQ0); test: BCRP-modulating activity in HEK293/R2 cells (MTS); format: cell-based; conditions: 1 μM, HEK293/R2
T1 construct: expressed in transfected cells; host or cells: HEK293/R2
T1 sequence (Q9UNQ0 1-655): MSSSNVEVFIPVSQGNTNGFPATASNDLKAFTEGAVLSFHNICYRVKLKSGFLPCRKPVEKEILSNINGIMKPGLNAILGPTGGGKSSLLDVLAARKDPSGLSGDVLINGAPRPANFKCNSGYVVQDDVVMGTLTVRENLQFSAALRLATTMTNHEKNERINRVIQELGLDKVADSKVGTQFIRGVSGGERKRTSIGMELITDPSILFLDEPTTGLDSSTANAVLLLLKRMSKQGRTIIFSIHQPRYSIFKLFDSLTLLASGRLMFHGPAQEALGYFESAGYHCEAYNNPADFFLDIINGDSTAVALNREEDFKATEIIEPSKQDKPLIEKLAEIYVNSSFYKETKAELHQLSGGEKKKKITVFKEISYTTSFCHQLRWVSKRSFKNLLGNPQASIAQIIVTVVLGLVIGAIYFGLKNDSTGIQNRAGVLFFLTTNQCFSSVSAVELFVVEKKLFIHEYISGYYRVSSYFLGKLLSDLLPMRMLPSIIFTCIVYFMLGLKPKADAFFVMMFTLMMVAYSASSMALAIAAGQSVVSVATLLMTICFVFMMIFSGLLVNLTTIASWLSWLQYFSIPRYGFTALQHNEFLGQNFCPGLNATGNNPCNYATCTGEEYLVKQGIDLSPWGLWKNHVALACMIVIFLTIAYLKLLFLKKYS
Experimental: The final volume in each well of the 96-well plate was 200 μL. The plate was then incubated for 5 days at 37 °C. The cell viability was determined using an MTS assay as reported previously.

[2] = molecular target: T2, CYP2C8 (Homo sapiens, UniProt P10632); test: PTX metabolism in human liver microsomes: 6α-OHP formation; format: in vitro ADME; conditions: HLM
T2 construct: tissue Research Institute for Liver Diseases (Shanghai); host or cells: 50-donor pooled human liver microsomes
T2 sequence (P10632 1-490): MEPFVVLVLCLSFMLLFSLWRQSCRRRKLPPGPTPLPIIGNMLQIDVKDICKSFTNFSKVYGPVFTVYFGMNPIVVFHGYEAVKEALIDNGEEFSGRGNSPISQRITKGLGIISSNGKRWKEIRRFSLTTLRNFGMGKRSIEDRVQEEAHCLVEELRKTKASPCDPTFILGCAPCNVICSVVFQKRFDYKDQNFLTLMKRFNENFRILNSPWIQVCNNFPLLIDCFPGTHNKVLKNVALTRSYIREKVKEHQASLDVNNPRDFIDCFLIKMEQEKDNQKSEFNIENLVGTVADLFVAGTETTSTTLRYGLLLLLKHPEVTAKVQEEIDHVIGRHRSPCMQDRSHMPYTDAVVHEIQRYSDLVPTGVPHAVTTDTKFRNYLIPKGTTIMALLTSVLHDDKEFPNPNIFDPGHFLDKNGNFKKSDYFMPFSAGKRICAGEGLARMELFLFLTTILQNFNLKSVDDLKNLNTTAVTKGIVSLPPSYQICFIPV
Experimental: Figure 7 Mechanistic study of FM04 to increase the oral PTX absorption. (A) transepithelial permeability of PTX in Caco-2 transwell assay. When confluent monolayer of Caco2 cells was formed on the transwell, the permeability of PTX (10 μM) was studied with or without FM04 (10 μM). For apical to basolateral transport (A to B), compound was added at the apical side (donor) and samples of the medium collected at the basal side (receiver) at 0, 20, 40, 60, 80, 100 and 120 min and vice versa for basal to apical transport (B to A). The PTX level was determined using UPLC-MS/MS. The relative % of PTX was presented as mean ± standard error of mean. N = 2–3 independent experiments. Impact of FM04 on PTX metabolism. […] After incubation, the levels of PTX, metabolites 6α-hydroxpaclitaxel (6α-OHP) and p3′-hydroxpaclitaxel (p3-OHP) were determined by HPLC-MS/MS. (B) changes in PTX. (C) changes in 6α-OHP. (D) changes in p3-OHP. […]
Drug solutions of PTX and FM04 were prepared in methanol. […] PTX and PTX metabolites were immediately analyzed by UPLC-MS/MS on the same day.
[^13C6]-paclitaxel (CAS: 379688-61-6) was the internal standard (IS) and purchased from Alsachim. Fifteen microliters of 10 μg/mL internal standard (IS) was added to all samples and calibration standards for quantification. […] PTX and both metabolites were semi-quantified base on the peak area ratio of the analyte/internal standard.

[3] = molecular target: T3, CYP3A4 (Homo sapiens, UniProt P08684); test: PTX metabolism in human liver microsomes: p3-OHP formation; format: in vitro ADME; conditions: HLM
T3 construct: tissue Research Institute for Liver Diseases (Shanghai); host or cells: 50-donor pooled human liver microsomes
T3 sequence (P08684 whole entry): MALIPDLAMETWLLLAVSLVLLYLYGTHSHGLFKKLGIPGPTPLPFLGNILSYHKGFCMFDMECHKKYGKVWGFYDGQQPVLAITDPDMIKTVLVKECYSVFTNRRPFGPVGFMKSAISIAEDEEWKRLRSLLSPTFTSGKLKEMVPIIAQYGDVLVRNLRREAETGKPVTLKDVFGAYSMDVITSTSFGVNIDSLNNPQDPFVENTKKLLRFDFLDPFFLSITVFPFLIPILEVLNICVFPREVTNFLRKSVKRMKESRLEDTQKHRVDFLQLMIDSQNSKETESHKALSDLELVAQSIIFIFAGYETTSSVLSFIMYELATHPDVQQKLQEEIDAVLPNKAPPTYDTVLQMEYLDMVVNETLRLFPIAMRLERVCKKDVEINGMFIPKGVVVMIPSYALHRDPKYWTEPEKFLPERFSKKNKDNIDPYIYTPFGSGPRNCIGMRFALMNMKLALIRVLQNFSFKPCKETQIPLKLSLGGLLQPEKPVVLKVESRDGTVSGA
Experimental: N = 2–3 independent experiments. […] N = 2–3 independent experiments.
Source parameters were as follows, gas temp (350 °C), gas flow (8 L/min), nebulizer (35 psi) and capillary (4000 V). […] Milli-Q with 0.1% formic acid was used as the aqueous phase.

decrease of the level of 6α-OHP ([2]; FM04 10 μM): 44%
decrease of the level of 6α-OHP ([2]; FM04 20 μM): 48%
reduction in p3-OHP ([3]; FM04 10 μM): 42%
reduction in p3-OHP ([3]; FM04 20 μM): 51%
SMILES: O=c1cc(-c2ccc(OCCOCCNCc3ccccc3)cc2)oc2ccccc12 [FM04, 2-(4-(2-(2-(benzylamino)ethoxy)ethoxy)phenyl)-4H-chromen-4-one]
reversal of BCRP-mediated topotecan resistance [1]: did not reverse BCRP-mediated topotecan resistance
